From patent US20250268980A1, “AN ANTICANCER THERAPY TARGETING RAS AND OTHER ONCOGENIC SIGNALS BY INHIBITION OF DYNAMIC BLEBBING AND/OR SEPTINS” (THE BOARD OF REGENTS OF THE UNIVERSITY OF TEXAS SYSTEM, priority 2022, published 2025)

What was measured:
Format in all cases: cell-based, human
[1] = test system: MV3 cells; assay: Detached/adhered viability assay, ethidium homodimer staining, MV3; conditions: for cell death: 24 hours of WGA
Method: Bleb formation was inhibited using wheat germ agglutinin (WGA), a lectin that reduces plasma membrane deformability by crosslinking components of the glycocalyx. […] To investigate putative bleb function as a driver of anchorage-independent cell survival assays were designed that consistently minimized both cell-substrate and cell-cell attachment over a period of 24 hours. This was accomplished by seeding cells at very low density (approx. 250 or 100 cells/ml) in non-adherent culture dishes under constant gentle agitation. For controls, cells were grown at identical concentrations in adherent variants of the same culture dishes. Together, this generated pairs of ‘detached’ and ‘adhered’ cell populations in paired same-day experiments.
Detached/Adhered Cell Culture. […] Drug treatments, solvent-only controls, or CellEvent caspase activity sensor were added to suspensions if appropriate to the experiment, and then immediately transferred to both an uncoated (for detached cells) and ibiTreated (for adhered cells) 8-well ibidi u-slide (ibidi cat #80821 and 80826) at 200 μl/well. Both slides were stored at 37° C. and 5% CO2 for either 24 hours (hrs) for viability assays, 3 hrs for ERK activity assays or 4 hours for caspase activation assays. Uncoated slides (detached) were nutated at 20 rpm during this time. […] For experiments using MAPKi A375 cells, Dabrafenib and Trametinib treatment was continued over the course of the experiment. […]
Viability, ERK Activity, and Caspase ActivityCell Counting Assays. Viability, ERK activity, and caspase activity assays were analyzed using live-cell fluorescent and phase-contrast microscopy, performed on a Nikon Ti microscope equipped with an environmental chamber held at 37° C. and 5% CO2 at 20× magnification. […] Live and dead cells (as identified by significant cellular ethidium signal) were counted using the Cell Counter ImageJ plugin. For ERK activity assays, live cells carrying ERK-nKTR-GFP and H2B-mCherry were imaged after 3 hours of experimental conditions and high/low ERK activity cells were counted with Cell Counter ImageJ plugin. […]

[2] = test system: MV3 melanoma cells; assay: 3D cell morphology analysis (blebs, surface curvature) of MV3 cells
Method: (§1) Cells Embedded in 3D Collagen.
(§2) 3D Light-Sheet Imaging. […] All images were saved in the OME-TIFF format.
3D Cell Image Analysis. Cell morphology and septin localization were analyzed principally via u-shape3D similar to the protocol described in Driscoll et al. Nature Methods. 16, 1037-1044 (2019), the disclosure of which is incorporated herein in its entirety. Briefly, 3D images were first deconvolved using either a Richardson-Lucy or Wiener algorithm with an experimentally measured point spread function. Cells were next segmented from the image background using u-shape3D's ‘twoLevel’ mode, which combines a straightforward Otsu threshold of the image to detect the outer cell surface with a blurred version of the image to segment the inside of the cell. The volume segmented from the blurred image was morphologically eroded to ensure the fidelity of the overall segmentation. Cell surfaces were then represented as triangle meshes, and the mean surface curvature at every triangle was calculated according to methods described in Driscoll et al. Nature Methods. 16, 1037-1044 (2019) and Elliott et al., Nat. […] To remove irregularities, the curvature was next smoothed in real space with a median filter of 1 pixel to remove infinities and then slightly diffused along the mesh. Septin and NRAS localization was measured from fluorescence images by extending a sphere of either 1 μm (for septins) or 2 μm (for NRAS) about each mesh triangle and mapping to the triangle the average intensity both within that sphere and the cell. Image intensity was not depth normalized prior to analysis, but was instead measured from the raw, undeconvolved image. […]
Blebs were also detected according to methods similar to that described in Driscoll et al. Nature Methods. […] Distances from bleb edges were then calculated as the geodesic distance from each triangle to the nearest bleb edge. […] Bleb and septin directional correlations were calculated using spherical statistics, in particular by fitting spherical normal distributions to distributions defined at each mesh triangle.

[3] = test system: cortical septin structures in MV3 cells; assay: Cortical septin localization (SEPT6-GFP) in MV3 cells
Method: as §1
Cells Grown in VitroGel Coffins. VitroGel coffins were prepared by embedding MV3 or A375 cells in VitroGel 3D or RGD at 1:1 dilution according to manufacturer's instructions (TheWell Biosciences, sku #TWG001). […] A 1:1 solution of VitroGel and VitroGel Dilution Solution was made and added to cell suspension at a ratio of 4:1 (VitroGel: cells) using gentle pipetting until well-mixed (with care taken not to form bubbles). Cell/VitroGel solution was transferred to an 8-well uncoated ibidi μ-slide (ibidi cat #80821) at 100 μl/well, spread over the bottom of wells with a pipette tip, and allowed to polymerize at room temperature for 15 minutes. The remainder of the well was then filled with 10% FBS DMEM and slide was stored at 37° C. and 5% CO2 for either 24 hrs for viability assays, 3 hrs for ERK activity assays, or 1 hour for visualization of septins/PI3K activity.
as §2
3D Cell Image Analysis. Cell morphology and septin localization were analyzed principally via u-shape3D similar to the protocol described in Driscoll et al. Nature Methods. 16, 1037-1044 (2019), the disclosure of which is incorporated herein in its entirety. Briefly, 3D images were first deconvolved using either a Richardson-Lucy or Wiener algorithm with an experimentally measured point spread function. […] Cell surfaces were then represented as triangle meshes, and the mean surface curvature at every triangle was calculated according to methods described in Driscoll et al. Nature Methods. […] Septin and NRAS localization was measured from fluorescence images by extending a sphere of either 1 μm (for septins) or 2 μm (for NRAS) about each mesh triangle and mapping to the triangle the average intensity both within that sphere and the cell. Image intensity was not depth normalized prior to analysis, but was instead measured from the raw, undeconvolved image. […]
Cortical septin levels were quantified by measuring the mean cytoplasmic intensity of each cell using hand-drawn ROIs that excluded nuclei (performed with the FIJI ImageJ package), and then calculating for each cell its fraction of cortical voxels (intracellular voxels within 0.96 μm of the u-Shape3D-derived surface) that were higher than that cell's mean cytoplasmic intensity (performed using a MATLAB script). NRAS enrichment at the surface was quantified by first calculating the total amount of intracellular signal expected to be within 0.96 μm of the surface if the cell's signal was homogenously distributed between all voxels, and then calculating the percent change between this value and the observed value for each cell. […]

O=C(Nc1ccccc1)Nc1ccnc(Cl)c1 [FCF, forchlorfenuron]
anoikis resistance (cell death adhered vs detached) ([1]; MV3, 50 μM FCF, 24 hours): greatly disrupted anoikis resistance | blebbiness ([2]; MV3, FCF treatment): without altering blebbiness | cortical septin structures ([3]; MV3 SEPT6-GFP, FCF treatment): near-complete ablation of cortical septin structures

wheat germ agglutinin [WGA]
cell death ([1]; adhered MV3 cells): little to none | cell death ([1]; detached MV3 cells): high levels of cell death | bleb density (fraction of cell surface comprised of blebs) ([2]; MV3 cells, different concentrations of WGA, morphological motif analysis): dosage dependent inhibitor of bleb density | mean plasma membrane curvature above K=0.4 μm-1 ([2]; control vs WGA-treated MV3 cells): reduced | cortical septin levels (fraction of cortical voxels above mean cytoplasmic SEPT6-GFP intensity) ([3]; MV3, relative to control conditions): significantly reduced cortical septin levels | septin localization (cortical levels) ([3]; MV3 SEPT6-GFP, WGA (50 ug/ml), VitroGel, H1152 (1 μM), NSC668394 (10 μM)): pronounced effects on septin localization, reducing cortical levels
